Read-outs that look alike come from different tables or passages of the source. No end group written: not given here.
Experiments:
Plasma GH [1] = test: Plasma growth hormone in wethers during 5-day continuous infusion of hGRF (acid form) through a jugular cannula, with or without estradiol implant; radioimmunological analysis; format: in vivo; details: no hGRF (Control), estradiol implant about 25 mcg/day
Protocol: Wethers weighing about 32 kg were confined in metabolism crates for about 7 days before the experiment began. […] Two days before the start of the treatment schedule, a Silastic (Dow Corning Corporation) cannula was inserted in each jugular vein of each wether. Four animals, two implanted and two unimplanted, were assigned to three GRF treatments, 1.5 mg/day, 0.33 mg/day and control. The GRF which was used was hGRF in the acid form, synthesized by solid phase synthetic methodology according to the general procedure of Merrifield et al., Biochemistry 21, 5020 (1982).
GRF was infused through one of the cannulae continuously for 5 days to the treated wethers, using a Harvard peristaltic pump. The GRF was diluted in physiological saline to a concentration such that the actual delivery rate was 0.5 ml of infusate per minute.
Six blood samples were collected from each wether each day, beginning 1 day before the start of infusion and continuing 1 day after the end of it. Two samples were obtained within 1 hour just before the beginning of each 1-hour ad libitum meal, and 1 sample was taken at the end of each meal. The animals received two 1-hour meals daily at 12 hour intervals. Additional blood samples were taken 1 hour before, just before, 10 minutes after and 60 minutes after the start of infusion. At the end of the infusion period, additional blood samples were obtained at 10, 20, 30 and 60 minutes after the termination of infusion.
The plasma was separated from the other components of the blood samples, and was analyzed for growth hormone by a standard radioimmunological procedure.
The table below reports the growth hormone levels in the animals, reported as means of all of the analyses in the stated time period. The data from animals which were implanted with estradiol are indicated by "+" in the column headed Estradiol.

Plasma GH [2] = test: Plasma growth hormone in lambs during subcutaneous infusion of hGRF analog (serine at position 27), with or without estradiol implant; format: in vivo; details: no hGRF (Control)
Protocol: This experiment was carried out substantially according to the scheme of Example 1. In this test, the GRF was a hGRF analog having serine in place of methionine at position 27; the GRF was prepared by recombinant methods. Four rates of hGRF were used, 0.75, 1.5 and 3.0 mg/day, and controls.
The hGRF was infused through a subcutaneous Silastic cannula using an IVAC model 630 pump (IVAC Corporation, San Diego). The hGRF was diluted in physiological saline to provide concentrations such that 48 ml/day of each infusate could be supplied to each animal.

growth hormone [3] = details: intravenously, normal men; cited from earlier work
[4] = tested on: growth hormone concentration; details: large doses, normal men, measured fasting; cited from earlier work
growth hormone [5] = details: steers, finishing diet with 10 mg/head/day; cited from earlier work
growth hormone [6] = details: rats, Rhesus monkeys, rabbits, sheep, cattle and chickens, as well as humans; cited from earlier work

C[C@]12CC[C@@H]3c4ccc(O)cc4CC[C@H]3[C@@H]1CC[C@@H]2O [Estradiol, estradiol]
Plasma GH, Infusion Period Day 1 (Plasma GH [1]): 3.3 ng/mL | Plasma GH, Infusion Period Day 2 (Plasma GH [1]): 4.3 ng/mL | Plasma GH, Infusion Period Day 3 (Plasma GH [1]): 2.9 ng/mL | Plasma GH, Infusion Period Day 4 (Plasma GH [1]): 5.2 ng/mL | Plasma GH, Infusion Period Day 5 (Plasma GH [1]): 4.2 ng/mL | Plasma GH, Posttreatment (Plasma GH [1]; day after infusion): 2.4 ng/mL | Plasma GH, Pretreatment (Plasma GH [1]; mean of analyses, day before infusion): 2.8 ng/mL | Plasma GH, Infusion Period Day 1 (Plasma GH [2]): 5.9 ng/mL | Plasma GH, Infusion Period Day 2 (Plasma GH [2]): 10.0 ng/mL | Plasma GH, Infusion Period Day 3 (Plasma GH [2]): 6.2 ng/mL | Plasma GH, Infusion Period Day 5 (Plasma GH [2]): 8.8 ng/mL | Plasma GH, Posttreatment (Plasma GH [2]): 8.7 ng/mL | Plasma GH, Pretreatment (Plasma GH [2]): 11.6 ng/mL

C#C[C@]1(O)CC[C@H]2[C@@H]3CCc4cc(O)ccc4[C@H]3CC[C@@]21C [Ethinyl estradiol]
growth hormone (growth hormone [3]): significant increase in growth hormone in 5 of 6 patients

CC/C(=C(/CC)c1ccc(O)cc1)c1ccc(O)cc1 [diethylstilbestrol]
growth hormone concentration [4]: increased growth hormone concentration

CC/C(=C(/CC)c1ccc(O)cc1)c1ccc(O)cc1 [stilbestrol]
growth hormone (growth hormone [5]): increased growth hormone

endogenous human GRF: GRF naturally produced by humans; peptide of 43 or 44 amino acids (YADAIFTNSYRKVLGQLSARKLLQDIMSRQQGESNQERGARARL; ends and bridges not checked; UniProt P01286 32-75, looked up)
GRF activity across species (growth hormone [6]): active

hGRF40 acid: human GRF analog having 40 amino acids and a free acid terminal (YADAIFTNSYRKVLGQLSARKLLQDIMSRQQGESNQERGA-OH; UniProt P01286 32-71, looked up, fragment)
GRF activity across species (growth hormone [6]): active

Source: patent US4997825A, “Synergistic treatment method” (Eli Lilly and Company, priority 1989, dated 1991)
